We go through one compound from PMC9785850, “Encorafenib Acts as a Dual-Activity Chemosensitizer through Its Inhibitory Effect on ABCC1 Transporter In Vitro and Ex Vivo” (Pharmaceutics, 2022).

The target of assay [1] is T1, P-glycoprotein (ABCB1) (Homo sapiens, UniProt P08183).
T1 construct: human ABCB1 overexpressed in MDCKII cells
The assay is described as follows: daunorubicin accumulation assay in MDCKII-ABCB1 cells, flow cytometry. Type of assay: cell-based.

The target of assay [2] is T2, ABCC1 (Homo sapiens, UniProt P33527).
T2 construct: human ABCC1 overexpressed in MDCKII cells
T2 sequence (P33527 whole entry): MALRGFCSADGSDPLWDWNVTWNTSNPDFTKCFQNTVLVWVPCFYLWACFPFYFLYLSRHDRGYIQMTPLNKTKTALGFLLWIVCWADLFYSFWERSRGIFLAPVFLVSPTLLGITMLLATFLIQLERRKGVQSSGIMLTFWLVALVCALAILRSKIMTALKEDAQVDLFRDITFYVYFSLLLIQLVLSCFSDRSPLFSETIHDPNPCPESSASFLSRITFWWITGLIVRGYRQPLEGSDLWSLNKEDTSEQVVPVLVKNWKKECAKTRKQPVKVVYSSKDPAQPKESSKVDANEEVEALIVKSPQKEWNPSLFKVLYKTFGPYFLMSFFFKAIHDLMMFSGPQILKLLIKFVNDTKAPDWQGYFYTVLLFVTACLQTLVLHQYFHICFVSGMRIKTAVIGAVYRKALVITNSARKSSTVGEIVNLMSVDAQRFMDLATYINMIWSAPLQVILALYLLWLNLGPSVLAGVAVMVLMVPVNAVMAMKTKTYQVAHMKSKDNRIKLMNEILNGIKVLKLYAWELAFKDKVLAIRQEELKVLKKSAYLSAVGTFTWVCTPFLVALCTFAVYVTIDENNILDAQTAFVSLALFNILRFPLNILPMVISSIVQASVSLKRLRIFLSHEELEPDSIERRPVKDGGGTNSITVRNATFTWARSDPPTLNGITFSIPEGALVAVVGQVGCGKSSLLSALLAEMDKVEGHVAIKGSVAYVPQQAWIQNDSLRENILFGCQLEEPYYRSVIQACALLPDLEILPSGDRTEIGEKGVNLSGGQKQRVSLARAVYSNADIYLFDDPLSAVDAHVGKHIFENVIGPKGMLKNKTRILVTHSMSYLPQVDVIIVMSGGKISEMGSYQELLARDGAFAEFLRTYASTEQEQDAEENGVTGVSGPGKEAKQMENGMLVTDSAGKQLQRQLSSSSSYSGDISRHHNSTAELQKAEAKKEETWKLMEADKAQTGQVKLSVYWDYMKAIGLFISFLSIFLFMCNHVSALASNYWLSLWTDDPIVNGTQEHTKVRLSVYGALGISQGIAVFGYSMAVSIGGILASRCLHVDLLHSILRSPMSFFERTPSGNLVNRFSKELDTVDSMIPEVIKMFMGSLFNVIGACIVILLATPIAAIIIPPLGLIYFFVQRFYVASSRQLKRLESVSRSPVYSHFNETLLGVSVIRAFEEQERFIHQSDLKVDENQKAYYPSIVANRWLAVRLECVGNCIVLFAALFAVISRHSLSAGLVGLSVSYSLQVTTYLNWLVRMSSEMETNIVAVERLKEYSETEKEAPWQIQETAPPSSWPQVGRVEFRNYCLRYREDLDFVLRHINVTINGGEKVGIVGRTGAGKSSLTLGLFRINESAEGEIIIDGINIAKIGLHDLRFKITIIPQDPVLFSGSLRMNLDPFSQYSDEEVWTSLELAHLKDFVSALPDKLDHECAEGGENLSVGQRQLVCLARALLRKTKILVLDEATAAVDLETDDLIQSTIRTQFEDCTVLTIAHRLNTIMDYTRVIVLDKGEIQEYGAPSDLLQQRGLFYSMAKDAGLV
The assay is described as follows: daunorubicin accumulation assay in MDCKII-ABCC1 cells, flow cytometry. Type of assay: cell-based.

T1 sequence (P08183 whole entry): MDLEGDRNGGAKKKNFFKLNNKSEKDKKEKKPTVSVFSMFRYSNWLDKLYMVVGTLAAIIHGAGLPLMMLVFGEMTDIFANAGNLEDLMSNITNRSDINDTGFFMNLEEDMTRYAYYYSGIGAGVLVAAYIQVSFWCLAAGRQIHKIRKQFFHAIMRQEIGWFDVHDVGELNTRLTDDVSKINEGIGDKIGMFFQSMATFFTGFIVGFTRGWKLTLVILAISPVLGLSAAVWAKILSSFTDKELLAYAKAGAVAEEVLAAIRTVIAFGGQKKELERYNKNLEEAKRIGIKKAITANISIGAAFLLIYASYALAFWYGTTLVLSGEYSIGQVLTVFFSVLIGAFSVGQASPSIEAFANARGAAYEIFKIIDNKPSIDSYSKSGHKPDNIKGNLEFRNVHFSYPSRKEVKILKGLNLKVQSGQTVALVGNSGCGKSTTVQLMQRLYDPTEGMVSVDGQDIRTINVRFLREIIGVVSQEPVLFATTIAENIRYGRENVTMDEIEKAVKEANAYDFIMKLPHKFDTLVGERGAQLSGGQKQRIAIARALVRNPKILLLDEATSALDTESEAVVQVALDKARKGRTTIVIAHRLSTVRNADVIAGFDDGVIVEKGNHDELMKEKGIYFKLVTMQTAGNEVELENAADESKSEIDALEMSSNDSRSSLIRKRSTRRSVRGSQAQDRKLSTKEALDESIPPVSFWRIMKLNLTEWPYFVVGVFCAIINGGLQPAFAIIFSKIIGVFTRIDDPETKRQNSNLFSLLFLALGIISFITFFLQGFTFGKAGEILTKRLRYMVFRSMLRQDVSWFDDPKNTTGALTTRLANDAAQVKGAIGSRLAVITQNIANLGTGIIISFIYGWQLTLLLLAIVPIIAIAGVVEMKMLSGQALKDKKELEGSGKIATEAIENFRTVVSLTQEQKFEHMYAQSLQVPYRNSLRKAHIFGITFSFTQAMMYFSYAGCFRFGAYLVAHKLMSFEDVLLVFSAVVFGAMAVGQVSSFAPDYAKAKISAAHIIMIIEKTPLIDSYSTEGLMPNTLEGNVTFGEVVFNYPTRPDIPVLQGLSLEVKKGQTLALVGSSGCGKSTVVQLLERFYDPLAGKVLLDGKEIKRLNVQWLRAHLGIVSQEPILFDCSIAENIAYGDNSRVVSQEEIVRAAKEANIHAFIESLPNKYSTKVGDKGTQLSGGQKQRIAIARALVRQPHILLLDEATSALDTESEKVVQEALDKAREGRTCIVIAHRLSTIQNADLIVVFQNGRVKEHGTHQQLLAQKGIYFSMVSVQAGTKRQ

`COC(=O)N[C@@H](C)CNc1nccc(-c2cn(C(C)C)nc2-c2cc(Cl)cc(NS(C)(=O)=O)c2F)n1` [encorafenib]: the IC50 amounted to 25.1 µM in assay [1] and 8.63 µM in assay [2].
